Test results reported in paper PMC4255280 (Cell metabolism, 2014).

Key:
[1] = target: MC4R (Mus musculus, UniProt P56450); experiment: Short-circuit current; type: cell-based
[2] = system: MC4R; experiment: α-MSH ISC response in human colon mucosa after antagonist pretreatment; type: cell-based; conditions: BIBO 300 nM, BIIE 1 μM, HS014 100 nM, each alone, 30 min prior to α-MSH
[3] = system: GPR119; experiment: Short-circuit current; type: cell-based, mouse; conditions: MC4R−/− mice, 10 μM apical

MC4R (Mus musculus, UniProt P56450), sequence (P56450 whole entry): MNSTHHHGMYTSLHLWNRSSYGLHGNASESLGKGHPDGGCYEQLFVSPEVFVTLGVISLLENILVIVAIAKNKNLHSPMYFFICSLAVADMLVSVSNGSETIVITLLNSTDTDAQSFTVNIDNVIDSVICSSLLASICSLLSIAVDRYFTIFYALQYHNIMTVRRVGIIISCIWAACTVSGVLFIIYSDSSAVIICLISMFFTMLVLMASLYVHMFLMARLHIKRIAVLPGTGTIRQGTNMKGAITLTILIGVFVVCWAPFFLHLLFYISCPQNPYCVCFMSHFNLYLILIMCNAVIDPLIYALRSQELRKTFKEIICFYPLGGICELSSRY

SMILES | Effect of pretreatment on α-MSH (1 μM, bl) ISC response in mouse colon [1] | Effect of pretreatment on α-MSH (1 μM, bl) ISC response in human colon mucosa [2] | Response in MC4R−/− mucosae versus MC4R+/+ mucosae [3]
NC(=O)NCc1ccc(CNC(=O)[C@@H](CCCN=C(N)N)NC(=O)C(c2ccccc2)c2ccccc2)cc1 [BIBO3304] | almost completely blocked | blockade | 
N=C(N)NCCC[C@H](NC(=O)CC1(CC(=O)N2CCN(C3c4ccccc4NC(=O)c4ccccc43)CC2)CCCC1)C(=O)NCCn1c(=O)n(-c2ccccc2)n(-c2ccccc2)c1=O (some centres unmarked) [BIIE0246] |  | not by BIIE alone | 
CC(C)(C)OC(=O)N1CCC(OCc2nc(-c3ccncc3)no2)CC1 [PSN632408] |  |  | not significantly different
NC1=N[C@H](O)[C@H]2[C@H]3O[C@]4(O)O[C@@H]([C@@H](O)[C@@]2(N1)[C@@H]4O)[C@]3(O)CO [tetrodotoxin] | not tetrodotoxin (TTX) sensitive |  | 
